According to US20080306155A1, “METHOD FOR TREATING RENAL DISEASE” (priority 2004, published 2008):
“Also recorded” adds a separate entry of the source.

Columns and labels:
[1] = tested on: renal ischemia-reperfusion injury in SD rats; assay: Renal ischemia-reperfusion injury model (Example 2); type: in vivo, rat; conditions: 30 min ischemia, 24 h reperfusion; for degree of renal I/R injury reflected by rise in plasma creatinine concentration: HET0016 5 mg/kg s.c., WIT003 10 mg/kg s.c., 30 min prior, vs vehicle
Procedure: Renal Ischemia-Reperfusion Injury Model: Experiments were performed in male SD rats anesthetized with pentobarbital (50 mg/kg). The kidneys were exposed via a midline incision and the renal arteries isolated. Adjustable vascular occluders were placed on both the right and left renal arteries to completely occlude blood flow to the kidneys for 30 minutes. After the period of complete renal ischemia, the clamps were removed and the kidneys were reperfused. The surgical incisions were closed with 2-0 silk suture and the animals were allowed to fully recover from anesthesia. Twenty four hours later, the rats were reanesthetized with pentobarbital, and a sample of blood collected from the aorta for measurement of plasma creatinine concentration using an autoanalyzer. The kidneys were collected, fixed in 10% formalin solution, and paraffin sections prepared and stained with H&E to evaluate the degree of tubular necrosis and injury.
Three groups of rats were studied. Group 1 rats were treated with vehicle and served as the control animals. Group 2 rats were treated with HET0016 (5 mg/kg, s.c.) 30 minutes prior to renal ischemia. Group 3 rats were given 5, 14-20-HEDE (WIT003) (10 mg/kg, s.c.) by injection 30 minutes prior to renal ischemia.

[2] = tested on: renal I/R injury in SD rats; assay: Renal I/R injury model (Example 3): plasma creatinine, tubular injury, TUNEL; type: in vivo, rat; conditions: for histological appearance of tubular injury (H&E, fluorescence microscopy): corticomedullary junction; for effect on plasma creatinine 24 hours following renal I/R injury: HET0016 5 mg/kg s.c., 5,14-20-HEDGE 1 mg/kg s.c.; for plasma creatinine: SD rats, 24 h after 30 min ischemia, s.c. 30 min prior: HET0016 5 mg/kg, 5,14-20-HEDE 10 mg/kg, 5,14-20-HEDGE 1 mg/kg; for area occupied by necrotic tubular epithelium or cast material (tubular injury score): compared to vehicle or HET0016-treated animals
Procedure: Renal I/R Injury Model: Rats were anesthetized with ketamine (50 mg/kg, i.m.) and sodium pentobarbital (50 mg/kg, i.p) and were placed on a heated surgical table to maintain body temperature at 37° C. A midline abdominal incision was made to expose the kidneys, and the renal arteries and veins were bilaterally occluded for 30 minutes using microvascular clamps. The clamps were then removed, the abdominal incision was closed, and the rats were allowed to recover for 24 hours. Rats were then euthanized with sodium pentobarbital (100 mg/kg, i.p.), and blood was collected from the aorta for measurement of plasma creatinine concentration using the Jaffe reaction. Both kidneys were collected for histological analysis.
In addition, the method was repeated on four groups of rats. However, rats were pretreated with a s.c. injection of vehicle or one of three treatments 30 minutes prior to induction of renal ischemia. Group 1 served as the control group and received 1 ml/kg of a vehicle (11% sulfobutyl-•-cyclodextrin in 165 mM mannitol solution, […].); Group 2 received HET0016 (5 mg/kg, s.c.); Group 3 received 5, 14-20-HEDE (10 mg/kg; s.c.); and Group 4 received 5, 14-20-HEDGE (1 mg/kg; s.c.).
Analysis of the degree of tubular injury: The kidneys of rats subjected to renal I/R injury were fixed in 10% formalin and paraffin sections (3•m) were prepared and stained with hematoxylin and eosin. The sections were examined at low power using a 2× objective of an Olympus BHT-2 (Olympus; Center Valley, Pa.) epifluorescent microscope equipped with a 540-nm excitation filter and a 590-nm emission filter. For each specimen, five randomly chosen outer medullary fields were photographed at 100× magnification using a digital color camera and following appropriate thresholding. The percentage of the area containing fluorescent necrotic tubular epithelium or cast material was quantified using Image-Pro Plus image analysis software (version 6.2; Media Cybernetics, Inc.; Bethesda, Md.). TUNEL labeling was also performed to assess the degree of apoptosis following renal LIR injury using an ApopTag Plus In Situ Apoptosis Fluorescein Detection Kit (Chemicon International; Temecula, Calif.) following the manufacturer's protocol. Apoptotic nuclei were visualized at approximately 100× by fluorescence microscopy and quantified using Metamorphi Image Analysis Software (Molecular Devices Corp.; Dowington, Pa.). A total of five fields were analyzed per section, with one section analyzed per animal. Data were expressed as the percentage of TUNEL positive nuclei per total number of DAPI stained cells.

renal I/R injury in rats = assay: Renal hemodynamics (laser-Doppler flowmetry, arterial pressure) during and after renal I/R; type: in vivo, rat
Procedure: Assessment of renal hemodynamics: Additional experiments were performed to determine if the renoprotective effect of 5, 14-20-HEDGE on renal I/R injury was associated with changes in renal cortical and medullary hemodynamics. Rats were anesthetized with ketamine (50 mg/kg, i.m.) and Inactin (100 mg/kg, i.p.; Sigma; St. Louis, Mo.). Catheters were placed in the femoral artery for continuous measurement of arterial pressure and in the femoral vein for i.v. infusions. The left kidney was then exposed and placed in a kidney holder and a single-mode optical fiber was implanted 4 mm into the kidney for measurement of MBF by laser-Doppler flowmetry (LDF) as previously described. See, Zou A, et al., J. Hypertens. 13:557-566 (1995). CBF was measured by a second laser-Doppler probe held in static position by a micromanipulator 1 mm above the renal cortex. After surgery and a 30-minute stabilization period, MAP, CBF and MBF were continuously recorded using WinDaq data acquisition software (DATAQ Instruments Inc.; Akron, Ohio) during a 5-minute control period. Baseline MAP, MBF and CBF were determined and then 5, 14-20-HEDGE (1 mg/kg s.c.) or vehicle (1 ml/kg s.c.) were administered. Thirty minutes later, the blood supply to the left kidney was occluded for 45 minutes. MAP, MBF and CBF were recorded during ischemia and for 3 hours following reperfusion.

[3] = Plasma levels of the 20-HETE analogs after s.c. injection (LC/MS); type: in vivo, rat; conditions: rats, 10 mg/kg s.c.; for peak blood levels: 10 mg/kg
Procedure: Measurement of plasma levels of the 20-HETE analogs: A chronic polyvinyl catheter was implanted into the jugular vein and exteriorized at the back of the neck of SD rats several days prior to an experiment. After a three-day recovery period, the rats (n=4 in each group) received a s.c. injection of either 5, 14-20-HEDE (10 mg/kg) or 5, 14-20-HEDGE (10 mg/kg), and blood samples were collected 1, 4, 8 and 24 hours after administration. Plasma levels of 5, 14-20-HEDE and 5, 14-20-HEDGE were measured by liquid chromatography-mass spectrometry (LC/MS) using an Applied Biosystems API 3000 LC/MS/MS (Foster City, Calif.).

isolated glomeruli = assay: Albumin permeability (Palb) of isolated glomeruli; type: cell-based, rat; conditions: for increase in Palb produced by TGF-•1 after pretreatment of glomeruli: pretreated with 1 μmol/L for 15 minutes at 37° C., then TGF-•1 10 ng/ml
Procedure: Measurement of Albumin Permeability (Palb): Glomeruli were isolated using the sieving method as previously described in a medium containing 5 g/dl of bovine serum albumin (BSA). See, Sharma R, et al, Kidney Intl. 58:131-136 (2000); and Savin V, et al. J. Am. Soc. Nephrol. 3:1260-1269 (1992). In each experimental condition, Palb was determined from the change in glomerular volume (•V) after exchange of the bath with medium containing 1 g/dl albumin. Palb was calculated as 1−(•Vexperimental/•Vcontrol) where glomeruli from SD rats fed a normal-salt diet were used to provide the control value for each experiment. To verify that lack of •Vs in Dahl S rats were related to changes in Palb rather than to changes in mechanical properties of glomeruli, additional studies were performed in which the glomeruli were exposed to a 5% solution of high molecular weight dextran.
In other experiments, we examined the interaction of TGF-• and 20-HETE on Palb in glomeruli isolated from SD rats and Dahl S rats fed either a LS diet or a HS diet for 4 days. Glomeruli were preincubated with vehicle or TGF-•1 (10 ng/ml) for 15 minutes at 37° C. and changes in Palb were determined. Glomeruli were also pretreated with 5, 14-20-HEDE (WIT003) (1 μmol/L; Taisho Pharmaceutical; Tokyo, Japan) (Alonso-Galicia et al., supra; and Yu et al., supra), for 15 minutes at 37° C. and the Palb response to TGF-• 1 (10 ng/ml) was redetermined. A minimum of 5 glomeruli from each rat were studied, and the experiments were performed using •5 rats per treatment group.

[4] = 1 mg/kg s.c., vs vehicle, listed as 5, 14-20-HEDGE

With `CCCCc1ccc(N=CNO)c(C)c1` [HET0016, N-hydroxy-N′-(4-butyl-2-methylphenol)-formamidine, reference compound] the “degree of renal I/R injury reflected by rise in plasma creatinine concentration” value [1] was “significantly greater”, the “histological appearance of tubular injury (H&E, fluorescence microscopy)” value (shortened to “histological appearance”) ([2]; 24 h after renal I/R) was “Diffuse tubular cell denudation, tubular cell necrosis, intratubular debris and tubular casts were present” and the “effect on plasma creatinine 24 hours following renal I/R injury” value ([2]; vs vehicle) was “significant increase”. It also gave a plasma creatinine [2] of 3.8 ± 0.3 mg/dL.
For `O=C(O)CNC(=O)CCC/C=C\CCCCCCC/C=C\CCCCCO` [5,14-20-HEDGE, N-[20-hydroxyeicosa-5(Z),14(Z)-dienoyl]glycine], the “number of apoptotic nuclei (TUNEL staining)” value ([2]; 24 h after renal I/R, 1 mg/kg s.c., vs vehicle) was “significantly less”, the “area occupied by necrotic tubular epithelium or cast material (tubular injury score)” value ([2]; 24 h after renal I/R) was “less severe renal injury; also recorded: marked reduction” and the “histological appearance” value ([2]; 24 h after renal I/R) was “less severe renal injury with only focal tubular necrosis or exfoliation of tubular cells”. For the same molecule, the “effect on plasma creatinine 24 hours following renal I/R injury” value ([2]; vs vehicle) was “nearly completely prevent the rise”, the plasma creatinine [2] was 0.5 ± 0.02 mg/dL and the “CBF or MBF prior to the induction of renal ischemia” value (renal I/R injury in rats; 1 mg/kg s.c.) was “did not have a significant effect”. For the same molecule, the “post-ischemic medullary blood flow (MBF)” value (renal I/R injury in rats; 1 mg/kg s.c. 30 min before 45 min ischemia, 3 h reperfusion, vs vehicle, listed as 5, 14-20-HEDGE) was “completely prevented the post-ischemic fall in MBF”, the “mean arterial pressure (MAP)” value (renal I/R injury in rats; [4]) was “without altering; also recorded: no effect” and the “post-ischemic cortical blood flow (CBF)” value (renal I/R injury in rats; [4]) was “without altering; also recorded: no effect”. For the same molecule, the half-life [3] was “approximately four” and the peak blood levels [3] was 300 ng/ml and approximately 1 μM.
With `O=C(O)CCC/C=C\CCCCCCC/C=C\CCCCCO` [5,14-20-HEDE, 20-hydroxyeicosa-5(Z),14(Z)-dienoic acid] the “Palb after TGF-•1 in glomeruli pretreated with 20-HETE analog” value (isolated glomeruli; glomeruli from Dahl S rats fed HS diet for 4 days, TGF-•1 10 ng/ml) was 0.40±0.01, the “Palb, baseline after pretreatment with 20-HETE analog” value (isolated glomeruli; glomeruli from Dahl S rats fed HS diet for 4 days, before TGF-•1) was 0.25±0.01 and the “baseline Palb after pretreatment of glomeruli” value (isolated glomeruli; glomeruli pretreated with 1 μmol/L for 15 minutes at 37° C., SD rats) was “reduced”. For the same molecule, the “increase in Palb produced by TGF-•1 after pretreatment of glomeruli” value (isolated glomeruli; SD rats, listed as 20-HETE analog) was “greatly attenuated”, the “increase in Palb produced by TGF-•1 after pretreatment of glomeruli” value (isolated glomeruli; SD rats, listed as WIT003) was “opposed” and the “histological damage to S3 segment of the proximal tubule” value ([1]; 10 mg/kg s.c., data not shown) was “reduced”. For the same molecule, the “degree of renal I/R injury reflected by rise in plasma creatinine concentration” value [1] was “significantly reduced”, the “reduction of plasma creatinine” value ([2]; 10 mg/kg s.c., 24 h after renal I/R, vs vehicle) was “approximately 50%” and the “area occupied by necrotic tubular epithelium or cast material (tubular injury score)” value ([2]; 24 h after renal I/R, listed as 5, 14-20-HEDE) was “less severe renal injury; also recorded: marked reduction”. For the same molecule, the “histological appearance” value ([2]; 24 h after renal I/R) was “less severe renal injury with only focal tubular necrosis or exfoliation of tubular cells”, the plasma creatinine [2] was 1.6 ± 0.3 mg/dL and the half-life [3] was “approximately four”. The peak blood levels [3] was 300 ng/ml and approximately 1 μM.
